# Results taken from ChEMBL document CHEMBL3352766, “Weakly anti-inflammatory limonoids from the seeds of Xylocarpus rumphii” (J Nat Prod, 2014).
# Activity calls are given as the source filed them. The calls are words filed in the database; no cut-off is given here.
# Columns and labels:
# J774.A1 [1] = assay: Antiinflammatory activity in mouse J774.A1 cells assessed as inhibition of LPS-induced NO production treated 2 hrs before LPS challenge measured after 20 hrs; type: functional, cell-based
# J774.A1 [2] = assay: Antiinflammatory activity in mouse J774.A1 cells assessed as inhibition of LPS-induced NO production at 50 uM treated 2 hrs before LPS challenge measured after 20 hrs; type: functional, cell-based
IC50 (J774.A1 [1]),SMILES,inhibition (J774.A1 [2])
31.3 µM,CC[C@H](C)C(=O)O[C@H]1C(C)(C)[C@H](CC(=O)OC)[C@@]2(C)[C@H]3CC[C@]4(C)C(=CC(=O)O[C@H]4c4ccoc4)[C@]34O[C@@]2(O)[C@@]1(O)[C@H]4OC(=O)[C@@H](C)CC,
,COC(=O)C[C@H]1C(C)(C)[C@H](OC(C)=O)[C@]2(O)[C@@H](OC(=O)C(C)C)[C@@]34O[C@]2(O)[C@]1(C)[C@H]3CC[C@]1(C)[C@H]4CC(=O)O[C@H]1c1ccoc1,inactive
,CC[C@H](C)C(=O)O[C@H]1C(C)(C)[C@H](CC(=O)OC)[C@@]2(C)[C@H]3CC[C@]4(C)[C@@H](CC(=O)O[C@H]4c4ccoc4)[C@]34O[C@@]2(O)[C@@]1(O)[C@H]4OC(=O)[C@@H](C)CC,inactive
,COC(=O)C[C@H]1[C@]2(C)C[C@@]34OC5(C)O[C@]6([C@@H]7[C@H](O)C(=O)O[C@@H](c8ccoc8)[C@]7(C)CC[C@]6(O5)[C@]13C)[C@H](OC(C)=O)[C@@]4(OC(C)=O)[C@H]2OC(C)=O,inactive
24.5 µM,CC[C@H](C)C(=O)O[C@H]1[C@@]23O[C@]4(O)[C@@](C)([C@@H](CC(=O)OC)C(C)(C)[C@H](OC(=O)C(C)C)[C@]14O)[C@H]2CC[C@]1(C)[C@H]3CC(=O)O[C@H]1c1ccoc1,
,CC[C@H](C)C(=O)O[C@H]1C(C)(C)[C@H](CC(=O)OC)[C@@]2(C)[C@H]3CC[C@]4(C)C(=CC(=O)O[C@H]4c4ccoc4)[C@]34O[C@@]2(O)[C@@]1(O)[C@H]4OC(=O)C(C)C,inactive
28.6 µM,COc1ccc2c(c1)c(CC(=O)O)c(C)n2C(=O)c1ccc(Cl)cc1 [INDOMETHACIN],
,CC[C@H](C)C(=O)O[C@@H]1[C@H]2[C@@H](OC(=O)C(C)C)C(C)(C)[C@H](CC(=O)OC)[C@@]3(C)[C@H]4CC[C@]5(C)[C@@H](CC(=O)O[C@H]5c5ccoc5)[C@@]14O[C@@]23O,inactive
,COC(=O)C[C@H]1C(C)(C)[C@H](OC(=O)C(C)C)[C@@H]2[C@@H](OC(=O)C(C)C)[C@@]34O[C@]2(O)[C@]1(C)[C@H]3CC[C@]1(C)[C@H]4CC(=O)O[C@H]1c1ccoc1,inactive
